Structures can show the parent of a compound that is named as a salt.

The target in the assay is T1, GK (recombinant glucokinase, residues 12-465 of the human enzyme) (Homo sapiens, UniProt P35557).
T1 construct: FLAG (C-terminal tag of vector pFLAG-CTC; only the vector is printed) (C); made in house; host or cells: Escherichia coli DH10b-T1r (pFLAG-CTC plasmid)
T1 sequence (P35557 12-465): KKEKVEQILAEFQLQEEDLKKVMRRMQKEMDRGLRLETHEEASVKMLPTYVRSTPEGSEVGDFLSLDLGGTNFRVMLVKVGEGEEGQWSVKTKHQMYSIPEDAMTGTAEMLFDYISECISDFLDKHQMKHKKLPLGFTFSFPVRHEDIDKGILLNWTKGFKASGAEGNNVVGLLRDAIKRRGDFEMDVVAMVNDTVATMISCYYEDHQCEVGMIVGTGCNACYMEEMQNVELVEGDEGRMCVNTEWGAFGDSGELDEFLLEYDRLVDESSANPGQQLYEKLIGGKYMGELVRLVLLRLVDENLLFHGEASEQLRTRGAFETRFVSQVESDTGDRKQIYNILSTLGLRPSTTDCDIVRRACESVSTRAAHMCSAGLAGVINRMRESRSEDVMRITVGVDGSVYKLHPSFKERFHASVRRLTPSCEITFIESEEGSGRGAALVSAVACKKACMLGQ
As to the kind of experiment: Determination of GK activity value (luminescence assay). The format is biochemical. The note with it: calculated maximal gain in GK enzyme activity at saturating compound concentration; 5 mM glucose, 5 μM ATP. An excerpt:
DNA encoding residues 12-465 of the full-length sequence of the human enzyme may be amplified by PCR and cloned into the HindIII and EcoRI sites of pFLAG-CTC (Sigma). SEQ.I.D. No. 1 corresponds to residues 12-465 of glucokinase.
The expression of recombinant glucokinase protein may be carried out by transformation and growth of DH10b-T1r E. coli cells incorporating the (pFLAG-CTC) plasmid in LB media. Protein expression can be induced in this system by the addition of IPTG to the culture medium.
Recombinant protein may be isolated from cellular extracts by passage over Sepharose Q Fast Flow resin (Pharmacia). This partially purified GK extract may then be further purified by a second passage over Poros HQ10 (Applied Biosystems). The purity of GK may be determined on denaturing SDS-PAGE gel. Purified GK may then be concentrated to a final concentration of 20.0 mg/ml. After flash freezing in liquid nitrogen, the proteins can be stored at −78° C. in a buffer containing 25 mM TRIS-HCl pH 7.6, 50 mM NaCl, and 0.5 mM TCEP.
The activation properties of compounds for GK may be determined using a black 384-well-plate format under the following reaction conditions: 25 mM Hepes pH 7.2, 25 mM NaCl, 10 mM MgCl2, 0.01% Brij35, 1 mM DTT, 5 μM ATP, 5 mM Glucose 2% DMSO. The amount of ATP consumed may be determined quantitatively by addition of equal volume of luciferase reagent (luciferase+beetle luciferin—KinaseGlo Luminescent Kinase Assay kit from Promega). The luminescence intensity may be measured by using the Analyst HT from LJL Biosystems.
The assay reaction may be initiated as follows: 4 μl of substrate mixture (12.5 μM ATP and 12.5 mM Glucose) was added to each well of the plate, followed by the addition of 2 μl of activator (2 fold serial dilutions for 11 data points for each activator) containing 10% DMSO. 4 μL of 1.25 nM GK solution obtained in Reference Example 3A may be added to initiate the reaction. The reaction mixture may then be incubated at room temperature for 60 min, and quenched and developed by addition of 10 μL of luciferase reagent. Luminescence intensities of the resulting reaction mixtures may be measured after a 10 min incubation at room temperature. The luminescence intensity may be measured by using the Analyst HT from LJL Biosystems.
% ACTmax values may be calculated by non-linear curve fitting of the compound concentrations and luminescence intensities to a standard inhibition/activation equation. % ACTmax represents the calculated maximal gain in GK enzyme activity at a saturating concentration of the compound. % ACTmax values for select compounds of the present invention are given in Table 2.
Turning to `CC(C)S(=O)(=O)c1cc(Oc2ccc(S(C)(=O)=O)cc2)c2[nH]nc(Nc3ccn(C)n3)c2c1` [Example 136, 5-(isopropylsulfonyl)-N-(1-methyl-1H-pyrazol-3-yl)-7-(4-(methylsulfonyl)phenoxy)-1H-indazol-3-amine trifluoroacetic acid salt], the “% ACTmax” value is reported as 110.9%. For `CS(=O)(=O)c1ccc(Oc2cc(-c3ncccc3Cl)cc3c(Nc4ccn(CC(O)CO)n4)n[nH]c23)cc1` (centres unmarked) [Example 131, 3-(3-(5-(3-chloropyridin-2-yl)-7-(4-(methylsulfonyl)phenoxy)-1H-indazol-3-ylamino)-1H-pyrazol-1-yl)propane-1,2-diol], the “% ACTmax” value was 147.8%. As to `Cn1ccc(Nc2nn(C)c3c(Oc4ccc(S(C)(=O)=O)cc4)cc(-c4ncccc4Cl)cc23)n1` [Example 134, 5-(3-chloropyridin-2-yl)-1-methyl-N-(1-methyl-1H-pyrazol-3-yl)-7-(4-(methylsulfonyl)phenoxy)-1H-indazol-3-amine], the “% ACTmax” value is reported as 24.1%.

With `CC(C)Oc1cc(Oc2ccc(S(C)(=O)=O)cc2)c2[nH]nc(Nc3ccn(C)n3)c2c1` [Example 133, 5-isopropoxy-N-(1-methyl-1H-pyrazol-3-yl)-7-(4-(methylsulfonyl)phenoxy)-1H-indazol-3-amine], the “% ACTmax” value is on record as 146.3%. Take `COCC(O)Cn1ccc(Nc2n[nH]c3c(Oc4ccc(S(C)(=O)=O)cc4)cc(-c4ncccc4Cl)cc23)n1` (centres unmarked) [Example 140, 1-(3-(5-(3-chloropyridin-2-yl)-7-(4-(methylsulfonyl)phenoxy)-1H-indazol-3-ylamino)-1H-pyrazol-1-yl)-3-methoxypropan-2-ol]: the “% ACTmax” value is reported as 146.5%.

Values taken from patent US20110301155A1, “INDAZOLE COMPOUNDS FOR ACTIVATING GLUCOKINASE” (priority 2007, published 2011).
